Here are results for 19 compounds from patent US9896458B2, “Compounds, compositions and methods” (Denali Therapeutics Inc., priority 0216, dated 2018).

The conditions of series [1]: cynomolgus monkey, in vivo.
Experimental: (§1) The protein binding in plasma was determined using a Rapid Equilibrium Dialysis Device (Thermo Scientific RED Device) or 96-well dialyzer apparatus (HTDialysis LLC). […] If required, plasma samples were pre-incubated (2 hours at 37° C.) with diisopropyl fluorophosphate (DFP) at the final concentration of 100 μM to prevent compound degradation due to amide hydrolysis. Appropriate volumes of spiked samples along with blank phosphate buffer were added to either device and incubated at 37° C. for a total of 5 hours with agitation at 500 rpm. Following incubation, an equal aliquot of dialysed matrix (plasma or buffer) is added to an equal volume of the opposite blank matrix such that the volume of buffer to plasma are equal. Mixed matrix samples were extracted by protein precipitation using acetonitrile containing the appropriate IS. Samples were then centrifuged for 10 min at 2800 rpm. Supernatants were collected and diluted and then injected on to an HPLC-MS/MS or UPLC-MS/MS system. Samples were analyzed by monitoring the appropriate parent/daughter ion transitions for the test and control compounds. The peak area ratios were used to measure test item concentrations. The fraction unbound (Afu) was determined as the ratio of the peak area ratio in buffer divided by the peak area ratio in plasma.
(§2) The PK properties of test articles were determined in male Sprague-Dawley Crl:CD(SD) rats, male Beagle dogs and male cynomolgus monkeys. Studies were conducted to the highest standards of animal welfare in accordance with national legislation and under approval of the internal animal care and use committees.
(§3) Compounds were administered by IV bolus to animals following an overnight fast. […] The formulations were administered at dose volumes ranging from 0.5-2 mL/kg. The IV dose ranged from 0.5-1 mg/kg.
(§4) Following dose administration, 8-9 serial blood samples were collected over 24 hours. Samples were mixed with anticoagulant and placed on wet ice prior to processing. Plasma was harvested following centrifugation, extracted using protein precipitation with acetonitrile containing IS. The processed supernatant was analyzed using UPLC or LC-MS/MS using specific parent/daughter ion pairs for the test article and IS. Plasma concentrations were determined using a calibration curve prepared using known concentrations of analyte. Pharmacokinetic parameters utilizing measured concentrations were calculated using Phoenix WinNonlin. The unbound plasma clearance was calculated as the ratio of the total body clearance divided by the fraction unbound in plasma.
Series [2] is described as follows: Metabolic stability (hepatocytes). It is filed as in vitro ADME. The note with it: human cryopreserved hepatocytes, well-stirred model. The source says: Hepatic clearance is expressed as mL/min/kg.
Series [3] deals with FADD-deficient Jurkat cells. Put plainly: cellular necroptosis assay (human TNFα induced). Type of series: cell-based. To be noted: 48 h, human TNFα 10 ng/mL, viability after 48 h, CellTiter-Glo, read-out: Cell IC50. (In general: ATP-based viability assays read luminescence as a measure of living cells.)
For series [4] the following is noted: in vivo.
Experimental: as §1, §2, §3, §4
The conditions of series [5]: in vivo. The source holds these as a separate data set.
Experimental: as §1
The PK properties of test articles were determined in male Sprague-Dawley Crl:CD(SD) rats, male Beagle dogs and male cynomolgus monkeys. […]
Following dose administration, 8-9 serial blood samples were collected over 24 hours. […] The processed supernatant was analyzed using UPLC or LC-MS/MS using specific parent/daughter ion pairs for the test article and IS. Plasma concentrations were determined using a calibration curve prepared using known concentrations of analyte. Pharmacokinetic parameters utilizing measured concentrations were calculated using Phoenix WinNonlin. The unbound plasma clearance was calculated as the ratio of the total body clearance divided by the fraction unbound in plasma.
Series [6] concerns TNF/zVAD induced temperature loss. Briefly: TNF-driven systemic inflammatory response syndrome model (TNF/zVAD). It is filed as in vivo. The note with it: mice, 5 mg/kg oral, 15 minutes before intravenous TNF/zVAD. The source says: The in vivo efficacy of compounds can be determined in mice using a TNF-driven systemic inflammatory response syndrome model as described by Duprez et. al. (2011, Immunity 35(6), 908-918) and Berger et. al. (2015, Cell Death Disc. 1, 15009). In this model system TNF/zVAD (tumor necrosis factor/Z-Val-Ala-DL-Asp-fluoromethylketone, a caspase inhibitor) treatment results in temperature loss and the production of several inflammatory cytokines. The ability of a test compound to inhibit these inflammatory effects can be measured in this model by dosing mice with test compound 15 minutes before administration of TNF/zVAD and measuring the inflammatory response. The dose required to inhibit the inflammatory response is a measure of the compounds efficacy at that dose. Using this model, Compound 42 was orally pre-dosed at 5 mg/kg 15 minutes before intraveneous administration of TNF/zVAD and temperature loss in the mice was measured by an implanted temperature chip. […] The decrease in dosing has a number of important potential advantages, including requiring less frequent administration to a patient, increased patient compliance, and improved safety profile such as lower toxicities while achieving similar efficacy.

Series [7] shares this test system. The note with it: dose of 30 mg/kg, from WO 2014/125444 Table 2; cited from earlier work.
Setting [8] is: male, Sprague-Dawley Crl:CD(SD).

The term pIC50 denotes the negative decadic logarithm of the IC50, by convention in mol/L.

Each structure is given as a SMILES string. pIC50: −log10 of the molar value. Read-outs that look alike come from different tables or passages of the source.

For `O=C(N[C@@H]1C(=O)Nc2c(F)cc(F)cc2[C@@H]2C[C@H]12)c1nnc(Cc2ccccc2)[nH]1` [Example 83A, 5-benzyl-N-((1aS,2S,8bR)-5,7-difluoro-3-oxo-1,1a,2,3,4,8b-hexahydrobenzo[b]cyclopropa[d]azepin-2-yl)-4H-1,2,4-triazole-3-carboxamide], the “Cyno unbound CL” value in series [1] (male) is 82 mL/min/kg. Further, the “Human hepatocyte CLhep Avg” value in series [2] was 1.0 mL/min/kg. In the case of `CN1C(=O)[C@@H](NC(=O)c2cn(Cc3ccccc3)nn2)[C@H]2C[C@H]2c2nccnc21` [Example 195, 1-benzyl-N-((7S,7aS,8aR)-5-methyl-6-oxo-5,6,7,7a,8,8a-hexahydrocyclopropa[d]pyrazino[2,3-b]azepin-7-yl)-1H-1,2,3-triazole-4-carboxamide], in series [3], the pIC50 is 7.80.

As to `CN1C(=O)[C@@H](NC(=O)c2cc(Cc3ccccc3)on2)COc2ccccc21` [C, reference compound], the “Human hepatocyte CLhep Avg” value in series [2] is reported as 19 mL/min/kg. Turning to `C[C@H]1Oc2cccnc2N(C)C(=O)[C@H]1NC(=O)c1nnc(Cc2ccccc2)[nH]1` [Example 94, 5-benzyl-N-((2R,3S)-2,5-dimethyl-4-oxo-2,3,4,5-tetrahydropyrido[3,2-b][1,4]oxazepin-3-yl)-4H-1,2,4-triazole-3-carboxamide], the “Rat unbound CL” value in series [4] (setting [8]) is recorded as 44 mL/min/kg. Besides, the “Cyno unbound CL” value in series [1] (male) came to 40 mL/min/kg. `CN1C(=O)[C@@H](NC(=O)c2nnc(Cc3ccccc3)o2)COc2ccccc21` [B, reference compound]: in series [2], the “Human hepatocyte CLhep Avg” value stood at 14 mL/min/kg. For the compound `O=C(N[C@H]1COc2ccccc2-n2ccnc21)c1cc(Cc2ccccc2)on1` [Example 70A, (R)-5-benzyl-N-(4,5-dihydrobenzo[b]imidazo[1,2-d][1,4]oxazepin-4-yl)isoxazole-3-carboxamide], the pIC50 in series [3] is 6.00 to 10.00.

For `CN1C(=O)[C@@H](NC(=O)c2nc(Cc3ccccc3)n[nH]2)COc2cccnc21` [Example 42], the “Rat unbound CL” value in series [4] came to 22 mL/min/kg. Also, the “Dog unbound CL” value in series [5] came to 64 mL/min/kg. Also, the “Cyno unbound CL” value in series [1] was 42 mL/min/kg. As for `CN1C(=O)[C@@H](NC(=O)c2nnc(Cc3ccccc3)o2)COc2cccnc21` [Example 146, (S)-5-benzyl-N-(5-methyl-4-oxo-2,3,4,5-tetrahydropyrido[3,2-b][1,4]oxazepin-3-yl)-1,3,4-oxadiazole-2-carboxamide], the “Rat unbound CL” value in series [4] (setting [8]) came out at 61 mL/min/kg. Also, the “Cyno unbound CL” value in series [1] (male) came to 39 mL/min/kg. For `CN1C(=O)[C@@H](NC(=O)c2nnc(Cc3ccccc3)[nH]2)[C@H]2C[C@H]2c2cccnc21` [Example 75A, 5-benzyl-N-((1aS,2S,8bR)-4-methyl-3-oxo-1,1a,2,3,4,8b-hexahydrocyclopropa[d]pyrido[2,3-b]azepin-2-yl)-4H-1,2,4-triazole-3-carboxamide], the “Rat unbound CL” value in series [4] (setting [8]) was 91 mL/min/kg. In series [1] (male), the “Cyno unbound CL” value is 93 mL/min/kg. The “Human hepatocyte CLhep Avg” value in series [2] is 9.1 mL/min/kg. `CN1C(=O)[C@@H](NC(=O)c2cc(C3(c4ccccc4)CC3)on2)COc2cccnc21` [Example 77, (S)-N-(5-methyl-4-oxo-2,3,4,5-tetrahydropyrido[3,2-b][1,4]oxazepin-3-yl)-5-(1-phenylchclopropyl)isoxazole-3-carboxamide]: the “Human hepatocyte CLhep Avg” value in series [2] was found to be 19 mL/min/kg. Turning to `CN1C(=O)[C@@H](NC(=O)c2ncn(Cc3cccc(C#N)c3)n2)COc2cccnc21` [Example 171, (S)-1-(3-cyanobenzyl)-N-(5-methyl-4-oxo-2,3,4,5-tetrahydropyrido[3,2-b][1,4]oxazepin-3-yl)-1H-1,2,4-triazole-3-carboxamide], the “Rat unbound CL” value in series [4] (setting [8]) worked out at 32 mL/min/kg. For the compound `CN1C(=O)[C@@H](NC(=O)c2nnc(Cc3ccccc3)[nH]2)COc2cccnc21` [Example 42, (S)-5-benzyl-N-(5-methyl-4-oxo-2,3,4,5-tetrahydropyrido[3,2-b][1,4]pxazepin-3-yl)-4H-1,2,4-triazole-3-carboxamide], in series [6], the “inhibition of temperature loss” value came to 96%. Further, the “Human hepatocyte CLhep Avg” value in series [2] turned out to be 0.8 mL/min/kg. For `CN1C(=O)[C@@H](NC(=O)c2nnc(Cc3ccccc3)o2)[C@H]2C[C@H]2c2nccnc21` [Example 177A], the “Rat unbound CL” value in series [4] worked out at 55 mL/min/kg. The “Cyno unbound CL” value in series [1] was determined as 58 mL/min/kg. In the case of `CN1C(=O)[C@@H](NC(=O)c2cc(C3(c4ccccc4)CC3)on2)COc2ccccc21` [Example 8, (S)-N-(5-methyl-4-oxo-2,3,4,5-tetrahydrobenzo[b][1,4]oxazepin-3-yl)-5-(1-phenylcyclopropyl)isoxazole-3-carboxamide], the “Rat unbound CL” value in series [4] (setting [8]) is given as 3700 mL/min/kg. Still for that read-out and setting: under `C[C@H]1Oc2cccnc2N(C)C(=O)[C@H]1NC(=O)c1nn(Cc2ccccc2)cc1F` [Example 92, 1-benzyl-N-((2R,3S)-2,5-dimethyl-4-oxo-2,3,4,5-tetrahydropyrido[3,2-b][1,4]oxazepin-3-yl)-4-fluoro-1H-pyrazole-3-carboxamide] stands 420 mL/min/kg. Turning to `CN1C(=O)[C@@H](NC(=O)c2nnc(Cc3ccccc3)[nH]2)COc2ccccc21` [A, reference compound], the “Rat unbound CL” value in series [4] (setting [8]) worked out at 77 mL/min/kg. In series [7], the “inhibition of temperature loss” value is listed as 93%. In series [5] (male, Beagle), the “Dog unbound CL” value amounted to 240 mL/min/kg. In addition, the “Human hepatocyte CLhep Avg” value in series [2] turned out to be 6.8 mL/min/kg. With `C[C@H]1Oc2cccnc2N(C)C(=O)[C@H]1NC(=O)c1nnc(Cc2ccccc2)o1` [Example 134, 5-Benzyl-N-((2R,3S)-2,5-dimethyl-4-oxo-2,3,4,5-tetrahydropyrido[3,2-b][1,4]oxazepin-3-yl)-1,3,4-oxadiazole-2-carboxamide], the “Rat unbound CL” value in series [4] (setting [8]) was 100 mL/min/kg. Moreover, the “Cyno unbound CL” value in series [1] (male) stood at 140 mL/min/kg. As to `C[C@H]1Oc2cccnc2N(C)C(=O)[C@H]1NC(=O)c1ncn(Cc2cccc(C#N)c2)n1` [Example 172], the “Rat unbound CL” value in series [4] is recorded as 65 mL/min/kg.

Regarding `CN1C(=O)[C@@H](NC(=O)c2nnc(C3(c4ccccc4)CC3)o2)COc2cccnc21` [Example 66, (S)-N-(5-methyl-4-oxo-2,3,4,5-tetrahydropyrido[3,2-b][1,4]oxazepin-3-yl)-5-(1-phenylcyclopropyl)-1,3,4-oxadiazole-2-carboxamide], the “Dog unbound CL” value in series [5] (male, Beagle) turned out to be 36 mL/min/kg. For the same compound, the “Human hepatocyte CLhep Avg” value in series [2] worked out at 6.3 mL/min/kg.
